The source of these data is patent US20020022586A1, “Method for treating a patient with neoplasia by treatment with a pyrimidine analog” (priority 1998, published 2002).

Where two headings read alike, the source gives them in different places.

For data set [1], the system named is HT-29 cells. The data set can be described thus: HT-29 tumor cell growth inhibition, SRB assay. Format: cell-based, human. Set-up: Growth Inhibition: key to the marks not given beside the values. Conditions: for inhibition at 100 µM / IC50: Homo sapiens; for inhibition at 100 µM: HT-29, read-out: Growth inhibitory activity, % Inhibition at 100 μM; for inhibition at 100 µM / Growth inhibitory activity, % Inhibition at 100 μM: 100 μM single dose; for IC50: SRB assay. In general terms: In SRB staining, fixed cells bind dye roughly in proportion to their protein.

The test system of data set [2] is HT-29 cells. Kind of data set: Apoptosis by DNA fragmentation assay in HT-29 cells. Format: cell-based, human.
Data set [3] has as its system PDE peak B (novel cGMP-specific PDE). Kind of data set: cGMP hydrolysis by PDE peak B isolated from SW-480 cells. Format: biochemical, human. Particulars: 0.25 μM 3H-cGMP.
In another data set the test system is T1, cGMP-PDE.
T1 construct: other: 10 μM; other: 100 μM; other: enzyme from HT-29 cells; other: 20 μM
The data set can be described thus: cGMP-PDE inhibition assay, enzyme from HT-29 tumor cells. Particulars: 100 μM. Format: biochemical, human.

The next data set has as its system COX. The data set can be described thus: COX inhibition. Format: biochemical.
For data set [4], the system named is premalignant lesions in mouse mammary gland organ culture. The data set can be described thus: Mammary gland organ culture model. As to mammary gland organ culture: key: −: Not active; +: Slightly active; ++: Moderately active; +++: Strongly active; ++++: Highly active. Format: cell-based. Particulars: for Mammary Gland Organ Culture: activity profile; for inhibition of premalignant lesions: mammary gland organ culture. As to the method:
For example, female BALB/c mice can be treated with a combination of estradiol and progesterone daily, in order to prime the glands to be responsive to hormones in vitro. The animals are sacrificed and thoracic mammary glands are excised aseptically and incubated for ten days in growth media supplemented with insulin, prolactin, hydrocortisone, and aldosterone. DMBA (7,12-dimethylbenz(a)anthracene) is added to medium to induce the formation of premalignant lesions. Fully developed glands are then deprived of prolactin, hydrocortisone, and aldosterone, resulting in the regression of the glands but not the premalignant lesions.
The test compound is dissolved in DMSO and added to the culture media for the duration of the culture period. At the end of the culture period, the glands are fixed in 10% formalin, stained with alum carmine, and mounted on glass slides. The extent of the area occupied by the mammary lesions can be quantitated by projecting an image of the gland onto a digitation pad. The area covered by the gland is traced on the pad and considered as 100% of the area. The space covered by each of the unregressed structures is also outlined on the digitization pad and quantitated by the computer.
The incidence of forming mammary lesions is the ratio of the glands with mammary lesions to […]. The incidence of mammary lesions in test compound treated glands is compared with that of the untreated glands.
Mammary gland organ culture experiments were performed as previously described (Mehta and Moon, Cancer Research, 46: 5832-5835, 1986). […] The data support the hypothesis that cyclooxygenase inhibition is not necessary for the anti-neoplastic properties of desired compounds.

Data set [5] deals with HT-29 cells. Kind of data set: Apoptosis and necrosis by morphology (acridine orange/ethidium bromide) in HT-29 cells. Format: cell-based, human. Particulars: HT-29, 6 days, morphology. An excerpt: Following treatment with a test compound, cultures can be assayed for apoptosis and necrosis by fluorescent microscopy following labeling with acridine orange and ethidium bromide. The method for measuring apoptotic cell number has previously been described by Duke & Cohen, “Morphological And Biochemical Assays Of Apoptosis,” Current Protocols In Immunology, Coligan et al., eds., 3.17.1-3.17.16 (1992, which is incorporated herein by reference).
For example, floating and attached cells can be collected, and aliquots of cells can be centrifuged. The cell pellet can then be resuspended in media and a dye mixture containing acridine orange and ethidium bromide. The mixture can then be examined microscopically for morphological features of apoptosis.
Reference compounds and test compounds were analyzed for their cGMP-specific PDE inhibitory activity in accordance with the protocols for the assay, supra. […] Apoptotic and necrotic cell death was determined as previously described (Duke and Cohen, In: Current Protocols in Immunology, 3.17.1-3.17.16, New York, John Wiley and Sons, 1992). […] All data were collected from the same experiment.
The apoptosis inducing activity for a series of phosphodiesterase inhibitors was determined. HT-29 cell were treated for 6 days with various inhibitors of phosphodiesterase. Apoptosis and necrosis were determined morphologically after acridine orange and ethidium bromide labeling in accordance with the assay described, supra.

Data set [6] deals with HT-29 cells. Kind of data set: cAMP levels in cultured HT-29 cells by radioimmunoassay. Format: cell-based, human. Particulars: HT-29 cells treated 30 minutes. An excerpt: It has been observed that a compound which is useful in the practice of this invention (i.e., one that selectively induces apoptosis in neoplastic cells, but not substantially in normal cells) follows a time course consistent with cGMP-specific PDE inhibition. […] The intracellular targets of these drug actions are being studied further, but current data support the concept that the initial rise in cGMP content and the subsequent fall in cAMP content precede apoptosis in neoplastic cells exposed to test compounds useful in this invention. To determine the cyclic AMP content in cell extracts, radioimmunoassay techniques similar to those described above for cGMP are used.
For orientation: Changes in cAMP serve as a functional read-out for many G protein-coupled receptors.

Data set [7] concerns Human Prostate Carcinoma PC3. The data set can be described thus: Growth inhibition of various cell lines (Table 5). Format: cell-based. As to the method: (§1) To show the effectiveness of cGMP-specific PDE inhibition on various forms of neoplasia, compounds were tested on numerous cell lines. […] The IC50 values were determined by the SRB assay. […] Therefore, compounds selected for cGMP-specific PDE inhibition in combination with a pyrimidine analog should be useful for treating neoplasia, in particular breast, colorectal and pancreatic cancers.

The next data set concerns A-427, Lung. Kind of data set: Growth inhibition of various cell lines (Table 5). Format: cell-based. Conditions: Homo sapiens. As to the method: as §1
Another data set deals with HT-29, Colon. The data set can be described thus: Growth inhibition of various cell lines (Table 5). Format: cell-based. Conditions: Homo sapiens.
Data set [8] can be described thus: Side effects of exisulind on administration. Format: in vivo. An excerpt: This effect is reversible, and liver enzymes return to normal levels when the administered dose of exisulind returns to the traditionally recommended level or when treatment is discontinued. The most serious side effect of pyrimidine analogs, on the other hand, is bone marrow suppression.

Another data set relates to MDA-MB-435. The data set can be described thus: Growth inhibition of various cell lines (Table 5). Format: cell-based. Particulars: Homo sapiens. Here is the method: as §1
The next data set has as its system HCT-15. Kind of data set: Growth inhibition of various cell lines (Table 5). Format: cell-based. Conditions: Homo sapiens. As to the method:
as §1

For a further data set, the system named is DU-145. The data set can be described thus: Growth inhibition of various cell lines (Table 5). Format: cell-based. Particulars: Homo sapiens. As to the method:
as §1

The next data set deals with T2, PDE peak A (PDE5) (Homo sapiens, UniProt O76074).
T2 construct: SW-480 cells are collected and homogenized; endogenous in cells; host or cells: SW-480 human colon adenocarcinoma cells; supernatant of homogenate fractionated on DEAE-Trisacryl M
The data set can be described thus: cGMP hydrolysis by PDE peak A isolated from SW-480 cells. Format: biochemical. Particulars: cGMP hydrolysis, 0.25 μM 3H-cGMP.

[9] abbreviates: 144 h, HT-29, 6 days, PDE inhibitors, read-out: Growth inhibition (IC50).

For the molecule `CCCc1nn(C)c2c(=O)[nH]c(-c3cc(S(=O)(=O)N4CCN(C)CC4)ccc3OCC)nc12` [Sildenafil, reference compound], in the data set with HT-29 cells [1], the inhibition (in general, the relative decrease from the control value, in per cent) at 100 µM is below 50%.
Take `CCCCCC[C@@H]([C@@H](C)O)n1cnc2c(N)ncnc21` (racemic) [EHNA, reference compound]: in the data set on HT-29 cells [2], the “Apoptosis inducing activity, Fold induction at 100 μM” value is reported as below 2.0 fold. For the same molecule, the IC50 (usually the concentration that inhibits the measured activity by half) in [3] worked out at 3.7 µM.
As to `CC1=C(CC(=O)O)c2cc(F)ccc2/C1=C\c1ccc(Cl)cc1` [C, (Z)-5-Fluoro-2-methyl-1-(p-chlorobenzylidene)-3-acetic acid], the “cGMP PDE % Inhibition at 100 μM” value in the data set on cGMP-PDE is listed as below 25%. In addition, in the data set on HT-29 cells [1], the “Growth inhibitory activity, % Inhibition at 100 μM” value is 80%.
With “rac-threo-(E)-1-(N,N′-diethylaminoethanethio)-1-(butan-1′,4′-olido)-[3′,4′:1,2′]-6-fluoro-2-methyl-3-(p-methylsulfonylbenzylidene)-indan”, the “Apoptosis inducing activity, Fold induction at 100 μM” value in the data set with HT-29 cells [2] is below 2.0 fold. The “COX Inhibition” value with COX (activity profile) was “−”. Besides, the “cGMP PDE % Inhibition at 100 μM” value in the data set with cGMP-PDE is given as below 25%. In addition, the “Mammary Gland Organ Culture” value in [4] is listed as “++”. For the same molecule, in the data set with HT-29 cells [1], the “Growth inhibitory activity, % Inhibition at 100 μM” value is listed as 68%.
Take `CCCOc1ccccc1-c1nc2nn[nH]c2c(=O)[nH]1` [Zaprinast, reference compound]: the concentration for half-maximal inhibition (IC50) with HT-29 cells [1] (setting [9]) is above 100 µM. Moreover, in the data set with HT-29 cells [1], the inhibition at 100 µM is below 50%.
On to `CC1=C(CC(=O)N(C2CCCCC2)C2CCCCC2)c2cc(F)ccc2/C1=C\c1ccc(S(C)(=O)=O)cc1` [F, (Z)-5-Fluoro-2-methyl-1-(p-methylsulfonylbenzylidene)-3-indenylacetamide, N,N′-dicyclohexyl], for which the “COX Inhibition” value in the data set on COX (activity profile) is recorded as “−”.
With `Cc1[nH]c(=O)c(C#N)cc1-c1ccncc1` [Milrinone], in the data set with HT-29 cells [5], the “% Apoptosis” value came out at 18% and the “% Necrosis” value is on record as 0%. Further, the IC50 in the data set with HT-29 cells [1] (setting [9]) is above 200 µM.
For the molecule `COc1ccc(C2CNC(=O)C2)cc1OC1CCCC1` (centres unmarked) [Rolipram], the “effect on cAMP levels” value with HT-29 cells [6] is “increased cAMP levels”. The molecule further returned an IC50 in [3] above 100 µM.
Turning to `Clc1cccc(Nc2nnc(-c3ccccc3)c3ccccc23)c1` [MY5445, reference compound], the “COX Inhibition” value in the data set with COX (activity profile) is “++++”.
Consider `CC1=C(CC(=O)O)c2cc(F)ccc2/C1=C/c1ccc([S+](C)[O-])cc1` (centres unmarked) [sulindac sulfoxide], for which the “inhibition of premalignant lesions” value in [4] is recorded as “effectively inhibit the formation of premalignant lesions”.
Consider `CC1=C(CC(=O)O)c2cc(F)ccc2/C1=C\c1ccc(S(C)(=O)=O)cc1` [Exisulind, (Z)-5-fluoro-2-methyl-1-[[4-(methylsulfonyl)phenyl]methylene]indene-3-yl acetic acid], for which the IC50 was 82 µM in data set [7]; 130 µM in the data set with A-427, Lung; 120 µM in the data set on HT-29, Colon. In addition, the “COX Inhibition” value in the data set on COX (activity profile) is “−”. Further, the “side effects at recommended dose” value in data set [8] (300-400 mg/day) is “no significant side effects”. The “liver enzymes at doses higher than recommended” value in [8] (doses higher than the recommended therapeutic levels, reversible) was “elevated levels of liver enzymes”. For the same molecule, the “inhibition of premalignant lesions” value in [4] was “effectively inhibit the formation of premalignant lesions”.
For `CC(=O)NC(CSC12CC(=O)OC1(C)/C(=C/c1ccc(S(C)(=O)=O)cc1)c1ccc(F)cc12)C(=O)O` (racemic) [D, rac-(E)-1-(butan-1′,4′-olido)-[3′,4′:1,2]-6-fluoro-2-methyl-3-(p-methylsulfonylbenzylidene)-1S-indanyl-N-acetylcysteine], the “COX Inhibition” value with COX (activity profile) is recorded as “−”. Also, the “Growth inhibitory activity, % Inhibition at 100 μM” value with HT-29 cells [1] is given as 78%.
Regarding “rac-(E)-1-(butan-1′,4′-olido)-[3′,4′:1,2]-6-fluoro-2-methyl-3-(p-methylsulfonylbenzylidene)-1 S-indanyl-glutathione)”, the “COX Inhibition” value in the data set with COX (activity profile) was “−”.
As for `COc1cc(/C=C2/C(C)=C(CC(=O)NCc3ccccc3)c3cc(F)ccc32)cc(OC)c1OC` [Compound E, (Z)-5-Fluoro-2-methyl-1-(3,4,5-trimethoxybenzylidene)-3-indenylacetamide, N-benzyl], in the data set on HT-29 cells [2] (Homo sapiens, HT-29, 48 hours, DNA fragmentation, read-out: EC50 for apoptosis induction), the EC50 (usually the concentration that produces a half-maximal response) was determined as 0.05 µM. Further, the IC50 in the data set on MDA-MB-435 turned out to be 0.04 µM; in the data set on HCT-15, 0.6 µM; with DU-145, 0.1 µM; with HT-29, Colon it was 0.1 µM; at PDE peak A (PDE5), 0.38 µM; in data set [3], 0.37 µM. Moreover, the IC50 with HT-29 cells [1] (HT-29, 144 h, six days, read-out: IC50 for growth inhibition of HT-29 cells) came to 0.04 µM. The “COX Inhibition” value in the data set with COX (100 μM) is “did not inhibit COX”; in the data set on COX (activity profile), “−”. Also, the “cGMP PDE % Inhibition at 100 μM” value in the data set on cGMP-PDE stood at 75%. Further, the “Mammary Gland Organ Culture” value in data set [4] is “++++”. The inhibition at 100 µM in the data set on HT-29 cells [1] was found to be 62%. Also, the “Growth Inhibition” value with HT-29 cells [1] (activity profile) is “++++”.
For `O=C([O-])C1CCN(c2nc(NCc3ccc4c(c3)OCO4)c3cc(Cl)ccc3n2)CC1.[Na+]` [Compound E4021, reference compound], in the data set with HT-29 cells [1], the “Growth inhibitory activity, % Inhibition at 100 μM” value is recorded as below 50%.
`CC1(C)C(=O)Nc2ccc(C3=NNC(=O)CC3)cc21` [Indolidan]: the IC50 against PDE peak A (PDE5) is 31 µM; in data set [3], above 100 µM.
As for “ribo-(E)-1-Triazolo-[2′,3′:1″,3″]-1-(butan-1′,4′-olido)-[3′,4′:1,2]-6-fluoro-2-methyl-3-(p-methylsulfonylbenzylidene)-indan [G]”, the “COX Inhibition” value with COX (activity profile) is given as “−”.
For `CCOC(=O)C1=C[C@]2(CC)CCCN3CCc4c(n1c1ccccc41)[C@@H]32` [Vinpocetine], the IC50 (against PDE peak A (PDE5); in data set [3]) was above 100 µM each time.
